Experimental findings from patent US20260226073A1 (AURIGENE ONCOLOGY LIMITED, priority 2023, published 2026) are described below.

Each structure is given as a SMILES string.

Experiment [1] concerns the target T1, human recombinant CBL-b (human Biotin CBL-b recombinant protein a.a. 39-426) (Homo sapiens, UniProt Q13191).
T1 construct: human Biotin CBL-b recombinant protein a.a; 39-426; Biotin (biotinylated); made in house
The experiment is described as follows: Biochemical assay for CBL-b inhibition (ligand displacement TR-FRET). Format: binding. The settings on record: 50 nM CBL-b, 0.3 μM Bodipy FL-Probe, read-out: IC50 (CBL-b inhibition, group). Put shortly:
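Ligand-displacement TR-FRET: 0.3 μM Bodipy FL probe competes with compound for 50 nM biotin-CBL-b (aa 39-426) after a 60 min RT compound pre-incubation; terbium-streptavidin detection, 60 min each step. Dose-response sigmoidal fitting gave IC50 and % maximum inhibition.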
In general terms: Time-resolved FRET reads energy transfer from a long-lived donor to a nearby acceptor.

Experiment [2] deals with NFAT signaling pathway in Jurkat NFAT reporter cells. Description: Jurkat NFAT reporter assay. Format: cell-based. The settings on record: Homo sapiens, 30 min with compound, then soluble anti-human CD3/CD28 antibody for 6 hours, luciferase readout, read-out: EC50 (Group). A digest of the protocol: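 Results are expressed as fold change relative to stimulated, inhibitor-free cells. Stimulation was 6 h with soluble anti-human CD3/CD28 antibody after a 30-min exposure of 1×10^5 NFAT-RE luciferase Jurkat reporter cells per well to the Cbl-b inhibitor; signal read by Bio-Glo bioluminescence.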
A general note: In a reporter assay the amount or activity of a reporter protein is the signal.

In experiment [3] the test system is human PBMCs stimulated with anti-CD3/CD28 Dynabeads. Description: Human PBMC cytokine release assay (IL-2 by ELISA). The experiment is classed as cell-based. The settings on record: Dynabeads CD3/CD28 48 hours, IL-2 ELISA, fold change over baseline, read-out: EC50 (human PBMC cytokine release, group). Here is the method: Peripheral blood mononuclear cells (PBMC) were isolated from healthy human donor using Histopaque (Sigma). The Cbl-inhibitor was added to 1×10^5 cells per well and the plate was incubated for 30 minutes at 37° C. in 5% CO2 at different concentrations with a final DMSO concentration of <0.5%. Following incubation with the Cbl-b inhibitor, human PBMCs were stimulated with Dynabeads™ Human T-Activator CD3/CD28 (Thermo Fisher Scientific) for 48 hours. Cell free supernatant were collected after end of incubation and were analyzed for cytokine secretion, including IL-2 by ELISA (R&D Systems). Readouts were reported as fold change over baseline. Here, baseline was the measurement obtained from human PBMCs stimulated with Dynabeads™ Human T-Activator CD3/CD28, where the cells were not incubated with a Cbl-b inhibitor.

T1 sequence (Q13191 39-426): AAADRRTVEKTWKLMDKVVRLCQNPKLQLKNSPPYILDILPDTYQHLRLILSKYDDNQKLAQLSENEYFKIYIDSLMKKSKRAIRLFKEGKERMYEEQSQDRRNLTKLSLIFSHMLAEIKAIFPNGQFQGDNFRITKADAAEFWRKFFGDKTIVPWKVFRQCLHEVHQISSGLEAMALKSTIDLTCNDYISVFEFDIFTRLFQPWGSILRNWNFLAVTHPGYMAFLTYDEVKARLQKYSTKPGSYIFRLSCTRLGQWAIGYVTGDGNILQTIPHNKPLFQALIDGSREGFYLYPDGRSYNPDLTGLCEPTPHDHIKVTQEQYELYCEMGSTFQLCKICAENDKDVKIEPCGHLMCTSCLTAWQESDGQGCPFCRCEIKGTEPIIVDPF

On to `C[C@H]1CCCN(Cc2cc(N3Cc4ccc(C5(Cc6nncn6C)COC5)cc4C3=O)cc(C(F)(F)F)c2)C1` [Compound 1, (S)-6-(3-((4-Methyl-4H-1,2,4-triazol-3-yl)methyl)oxetan-3-yl)-2-(3-((3-methylpiperidin-1-yl)methyl)-5-(trifluoromethyl)phenyl)isoindolin-1-one], for which the IC50 (as a rule, the midpoint of a concentration-inhibition curve) in experiment [1] lay within 0.08 to 0.3 µM. The EC50 is less than 0.3 µM in experiment [2] and less than 5 µM in experiment [3].
For the compound `Cc1cc(CNCC2CC2)cc(N2Cc3ccc(-c4ccc(Cl)cc4-c4nncn4C)cc3C2=O)n1` [Compound 101, 6-(4-Chloro-2-(4-methyl-4H-1,2,4-triazol-3-yl)phenyl)-2-(4-(((cyclopropylmethyl)amino)methyl)-6-methylpyridin-2-yl)isoindolin-1-one], the IC50 in experiment [1] was less than 0.08 µM. Further, the EC50 in experiment [2] is less than 0.3 µM.
Taken in the same sequence, the figures for `CC(Cc1nncn1C)c1ccc2c(c1)C(=O)N(c1cc(CN3CCC[C@H](C)C3)cc(Cl)n1)C2` (stereo partly drawn) [Compound 83, 2-(6-Chloro-4-(((S)-3-methylpiperidin-1-yl)methyl)pyridin-2-yl)-6-(1-(4-methyl-4H-1,2,4-triazol-3-yl)propan-2-yl)isoindolin-1-one] were less than 0.08 µM and less than 0.3 µM.
The matching figures for `Cc1cc(CNCCC(C)C)cc(N2Cc3ccc(-c4ccc(F)cc4-c4nncn4C)cc3C2=O)n1` [Compound 300, 6-(4-Fluoro-2-(4-methyl-4H-1,2,4-triazol-3-yl)phenyl)-2-(4-((isopentylamino)-methyl)-6-methylpyridin-2-yl)isoindolin-1-one]: less than 0.08 µM and 0.3 to 1 µM.
As for `Cn1cnnc1-c1cc(Cl)ccc1-c1ccc2c(c1)C(=O)N(c1cc(Cl)cc(CNCC3CC3)c1)C2` [Compound 119, 6-(4-Chloro-2-(4-methyl-4H-1,2,4-triazol-3-yl)phenyl)-2-(3-chloro-5-(((cyclo-propylmethyl)amino)methyl)phenyl)isoindolin-1-one], the IC50 in experiment [1] is less than 0.08 µM. Further, the EC50 in experiment [2] was in the range of 0.3 to 1 µM.
Taken in the same sequence, the figures for `C[C@H]1CCCN(Cc2cc(C3CC3)cc(N3Cc4ccc(C5(Cc6nncn6C)COC5)cc4C3=O)c2)C1` [Compound 7, (S)-2-(3-Cyclopropyl-5-((3-methylpiperidin-1-yl)methyl)phenyl)-6-(3-((4-methyl-4H-1,2,4-triazol-3-yl)methyl)oxetan-3-yl)isoindolin-1-one] were 0.08 to 0.3 µM and 0.3 to 1 µM.
As for `C[C@@H](NCC1CC1)c1cc(Cl)nc(N2Cc3ccc(-c4ccc(Cl)cc4-c4nncn4C)cc3C2=O)c1` (single isomer, unassigned) [Compound 110, 6-(4-Chloro-2-(4-methyl-4H-1,2,4-triazol-3-yl)phenyl)-2-(6-chloro-4-(1-((cyclo-propylmethyl)amino)ethyl)pyridin-2-yl)isoindolin-1-one], the IC50 in experiment [1] is less than 0.08 µM. Also, the EC50 in experiment [2] is less than 0.3 µM.
With `C[C@H]1CCCN(Cc2cc(Br)cc(N3Cc4ccc(C5(Cc6nncn6C)COC5)cc4C3=O)c2)C1` [Compound 10, (S)-2-(3-Bromo-5-((3-methylpiperidin-1-yl)methyl)phenyl)-6-(3-((4-methyl-4H-1,2,4-triazol-3-yl)methyl)oxetan-3-yl)isoindolin-1-one], the IC50 in experiment [1] is less than 0.08 µM. Also, in experiment [2], the EC50 is less than 0.3 µM.
Taken in the same sequence, the figures for `Cc1cc(CNCC2CC(F)(F)C2)cc(N2Cc3ccc(-c4ccc(F)cc4-c4nncn4C)cc3C2=O)n1` [Compound 260, 2-(4-((((3,3-Difluorocyclobutyl)methyl)amino)methyl)-6-methylpyridin-2-yl)-6-(4-fluoro-2-(4-methyl-4H-1,2,4-triazol-3-yl)phenyl)isoindolin-1-one] were less than 0.08 µM and less than 0.3 µM.
Taken in the same sequence, the figures for `C[C@H](NCC1CC1)c1cc(Cl)nc(N2Cc3ccc(-c4ccc(Cl)cc4-c4nncn4C)cc3C2=O)c1` (single isomer, unassigned) [Compound 111, 6-(4-Chloro-2-(4-methyl-4H-1,2,4-triazol-3-yl)phenyl)-2-(6-chloro-4-(1-((cyclo-propylmethyl)amino)ethyl)pyridin-2-yl)isoindolin-1-one] were less than 0.08 µM and less than 0.3 µM.
With `C[C@H]1CCCN(Cc2cc(Cl)nc(N3Cc4ccc(C5(Cc6nncn6C)CCC5)cc4C3=O)c2)C1` [Compound 89, (S)-2-(6-Chloro-4-((3-methylpiperidin-1-yl)methyl)pyridin-2-yl)-6-(1-((4-methyl-4H-1,2,4-triazol-3-yl)methyl)cyclobutyl)isoindolin-1-one], the IC50 in experiment [1] was less than 0.08 µM. The EC50 in experiment [2] is less than 0.3 µM.
Taken in the same sequence, the figures for `Cc1cc(CNCC2(O)CC2)cc(N2Cc3ccc(-c4ccc(F)cc4-c4nncn4C)cc3C2=O)n1` [Compound 311] were less than 0.08 µM and 1 to 10 µM.
With `C[C@@H](NCC1CC1)c1cc(Cl)nc(N2Cc3ccc(C4(Cc5nncn5C)COC4)cc3C2=O)c1` (single isomer, unassigned) [Compound 166], the IC50 in experiment [1] is less than 0.08 µM. Besides, in experiment [2], the EC50 is less than 0.3 µM.
Regarding `Cc1cc(CN2CCC3(CC3)C2)cc(N2Cc3ccc(-c4ccc(F)cc4-c4nncn4C)cc3C2=O)n1` [Compound 259], the IC50 in experiment [1] was less than 0.08 µM. In addition, the EC50 in experiment [2] was in the range of 1 to 10 µM.
Taken in the same sequence, the figures for `Cc1cc(CNCC2CC2)cc(N2Cc3c(cc(-c4ccc(F)cc4-c4nncn4C)cc3C(F)(F)F)C2=O)n1` [Compound 256, 2-(4-(((Cyclopropylmethyl)amino)methyl)-6-methylpyridin-2-yl)-6-(4-fluoro-2-(4-methyl-4H-1,2,4-triazol-3-yl)phenyl)-4-(trifluoromethyl)isoindolin-1-one] were less than 0.08 µM and 1 to 10 µM.
The matching figures for `C[C@H]1CCCN(Cc2cc(Cl)nc(N3Cc4ccc([C@H](Cc5nncn5C)C(F)(F)F)cc4C3=O)c2)C1` (single isomer, unassigned) [Compound 181]: less than 0.08 µM and 0.3 to 1 µM.
As for `Cn1cnnc1CC1(c2ccc3c(c2)C(=O)N(c2cc(CNCCC(F)(F)F)cc(Cl)n2)C3)COC1` [Compound 66, 2-(6-Chloro-4-(((3,3,3-trifluoropropyl)amino)methyl)pyridin-2-yl)-6-(3-((4-methyl-4H-1,2,4-triazol-3-yl)methyl)oxetan-3-yl)isoindolin-1-one], the IC50 in experiment [1] was less than 0.08 µM. Besides, the EC50 in experiment [2] was less than 0.3 µM.
Taken in the same sequence, the figures for `CC(NCc1cc(Cl)nc(N2Cc3ccc(C4(Cc5nncn5C)COC4)cc3C2=O)c1)C1CC1` (centres unmarked) [Compound 131, 2-(6-Chloro-4-(((1-cyclopropylethyl)amino)methyl)pyridin-2-yl)-6-(3-((4-methyl-4H-1,2,4-triazol-3-yl)methyl)oxetan-3-yl)isoindolin-1-one] were less than 0.08 µM and less than 0.3 µM.
The matching figures for `C[C@@H]1C[C@H](C)CN(Cc2cc(N3Cc4ccc(C5(Cc6nncn6C)CCC5)cc4C3=O)nc(C(F)(F)F)c2)C1` [Compound 82, 2-(4-(((3S,5R)-3,5-Dimethylpiperidin-1-yl)methyl)-6-(trifluoromethyl)pyridin-2-yl)-6-(1-((4-methyl-4H-1,2,4-triazol-3-yl)methyl)cyclobutyl)isoindolin-1-one]: less than 0.08 µM and less than 0.3 µM.
Taken in the same sequence, the figures for `Cc1cc(CNCC2CC2)cc(N2Cc3ccc(-c4ccc(Cl)cc4-c4nncn4C)cc3C2=O)c1` [Compound 280, 6-(4-Chloro-2-(4-methyl-4H-1,2,4-triazol-3-yl)phenyl)-2-(3-(((cyclopropyl-methyl)amino)methyl)-5-methylphenyl)isoindolin-1-one] were less than 0.08 µM and 0.3 to 1 µM.
For the compound `C[C@H]1CCCN(Cc2cc(Cl)nc(N3Cc4ccc(-c5ccc(C#N)cc5-c5nncn5C)cc4C3=O)c2)C1` [Compound 112, (S)-4-(2-(6-Chloro-4-((3-methylpiperidin-1-yl)methyl)pyridin-2-yl)-3-oxoiso-indolin-5-yl)-3-(4-methyl-4H-1,2,4-triazol-3-yl)benzonitrile], in experiment [1], the IC50 was less than 0.08 µM. The EC50 in experiment [2] is less than 0.3 µM.
As to `Cc1cc(CNCC2CC2)cc(N2Cc3ccc(-c4ccc(F)cc4-c4nncn4C4CC4)cc3C2=O)n1` [Compound 320, 6-(2-(4-Cyclopropyl-4H-1,2,4-triazol-3-yl)-4-fluorophenyl)-2-(4-(((cyclopropyl-methyl)amino)methyl)-6-methylpyridin-2-yl)isoindolin-1-one], the IC50 in experiment [1] was less than 0.08 µM. Further, in experiment [2], the EC50 is 0.3 to 1 µM.
For the compound `Cc1nc(N2Cc3ccc(-c4ccc(F)cc4-c4nncn4C)cc3C2=O)cc(CNCC2CC2)c1F` [Compound 261, 2-(4-(((Cyclopropylmethyl)amino)methyl)-5-fluoro-6-methylpyridin-2-yl)-6-(4-fluoro-2-(4-methyl-4H-1,2,4-triazol-3-yl)phenyl)isoindolin-1-one], the IC50 in experiment [1] was less than 0.08 µM. Moreover, the EC50 in experiment [2] fell in the range of 1 to 10 µM.
